Experimental data: ChEMBL document CHEMBL6134780, “Halogenated retinoid derivatives as dual RARα and RXRα modulators for treating acute promyelocytic leukemia cells” (Eur J Med Chem, 2024)
Activity calls are given as the source filed them. The calls are words filed in the database; no cut-off is given here.

Columns and labels:
[1] = system: NB-4; assay: Cell cycle arrest in human NB4 cells transfected with pLVX-shPML-RARalpha plasmid assessed as accumulation of cells at G0/G1 phase at 1 uM incubated for 12 hrs by DAPI staining based flow cytometric analysis (reference value: 38 %); assay type: functional
[2] = Cell cycle arrest in human ATRA-resistant NB4-LR2 cells assessed as accumulation of cells at G0/G1 phase at 2 uM incubated for 3 hrs by DAPI staining based flow cytometric analysis (reference value: 57 %); assay type: functional
[3] = Cell cycle arrest in human ATRA-resistant NB4-LR2 cells assessed as accumulation of cells at sub-G1 phase at 1 uM incubated for 12 hrs by DAPI staining based flow cytometric analysis (reference value: 18 %); assay type: functional
[4] = system: NB-4; assay: Cell cycle arrest in human NB4 cells assessed as accumulation of cells at sub-G1 phase at 2 uM incubated for 24 hrs by DAPI staining based flow cytometric analysis (reference value: 3 %); assay type: functional
[5] = system: NB-4; assay: Cell cycle arrest in human NB4 cells transfected with pLVX-shPML-RARalpha plasmid assessed as accumulation of cells at G2/M phase at 2 uM incubated for 12 hrs by DAPI staining based flow cytometric analysis (reference value: 22 %); assay type: functional
[6] = system: ATRA-resistant NB4-LR2; assay: Induction of apoptosis in human ATRA-resistant NB4-LR2 cells transfected with pLVX-shRXRalpha assessed as increase in cleaved PARP expression at 1 uM incubated for 12 hrs by Western blot analysis; assay type: functional, cell-based
[7] = system: NB-4; assay: Cell cycle arrest in human NB4 cells assessed as accumulation of cells at G2/M phase at 2 uM incubated for 24 hrs by DAPI staining based flow cytometric analysis (reference value: 23 %); assay type: functional
[8] = system: NB-4; assay: Cell cycle arrest in human NB4 cells assessed as accumulation of cells at sub-G1 phase at 2 uM incubated for 6 hrs by DAPI staining based flow cytometric analysis (reference value: 3 %); assay type: functional
[9] = system: NB-4; assay: Cell cycle arrest in human NB4 cells transfected with pLVX-shRXRalpha plasmid assessed as accumulation of cells at S phase at 1 uM incubated for 12 hrs by DAPI staining based flow cytometric analysis (reference value: 19 %); assay type: functional
[10] = Cell cycle arrest in human ATRA-resistant NB4-LR2 cells assessed as accumulation of cells at G2/M phase at 2 uM incubated for 6 hrs by DAPI staining based flow cytometric analysis (reference value: 15 %); assay type: functional
[11] = system: NB-4; assay: Cell cycle arrest in human NB4 cells transfected with pLVX-shRNA2-negative control assessed as accumulation of cells at G2/M phase at 1 uM incubated for 12 hrs by DAPI staining based flow cytometric analysis (reference value: 24 %); assay type: functional
[12] = system: NB-4; assay: Cell cycle arrest in human NB4 cells assessed as accumulation of cells at S phase at 0.5 uM incubated for 24 hrs by DAPI staining based flow cytometric analysis (reference value: 26 %); assay type: functional
[13] = system: NB-4; assay: Cell cycle arrest in human NB4 cells transfected with pLVX-shPML-RARalpha plasmid assessed as accumulation of cells at sub-G1 phase at 1 uM incubated for 12 hrs by DAPI staining based flow cytometric analysis (reference value: 21 %); assay type: functional
[14] = system: NB-4; assay: Cell cycle arrest in human NB4 cells assessed as accumulation of cells at S phase at 2 uM incubated for 12 hrs by DAPI staining based flow cytometric analysis (reference value: 20 %); assay type: functional
[15] = system: NB-4; assay: Cell cycle arrest in human NB4 cells transfected with pLVX-shRXRalpha plasmid assessed as accumulation of cells at G2/M phase at 2 uM incubated for 12 hrs by DAPI staining based flow cytometric analysis (reference value: 17 %); assay type: functional
[16] = system: NB-4; assay: Cell cycle arrest in human NB4 cells assessed as accumulation of cells at G0/G1 phase at 1 uM incubated for 24 hrs by DAPI staining based flow cytometric analysis (reference value: 48 %); assay type: functional
[17] = system: NB-4; assay: Cell cycle arrest in human NB4 cells transfected with pLVX-shRXRalpha plasmid assessed as accumulation of cells at S phase at 2 uM incubated for 12 hrs by DAPI staining based flow cytometric analysis (reference value: 19 %); assay type: functional
[18] = system: NB-4; assay: Cell cycle arrest in human NB4 cells assessed as accumulation of cells at G2/M phase at 2 uM incubated for 3 hrs by DAPI staining based flow cytometric analysis (reference value: 21 %); assay type: functional
[19] = Cell cycle arrest in human ATRA-resistant NB4-LR2 cells assessed as accumulation of cells at G2/M phase at 0.5 uM incubated for 24 hrs by DAPI staining based flow cytometric analysis (reference value: 25 %); assay type: functional
[20] = system: NB-4; assay: Induction of apoptosis in human NB4 cells assessed as early apoptotic cells at 1 uM incubated for 24 hrs by Annexin V-FITC/PI staining based flow cytometric analysis (reference value: 1.77 %); assay type: functional
[21] = Cell cycle arrest in human ATRA-resistant NB4-LR2 cells assessed as accumulation of cells at sub-G1 phase at 1 uM incubated for 24 hrs by DAPI staining based flow cytometric analysis (reference value: 12 %); assay type: functional
[22] = system: NB-4; assay: Cell cycle arrest in human NB4 cells transfected with pLVX-shRNA2-negative control assessed as accumulation of cells at G0/G1 phase at 2 uM incubated for 12 hrs by DAPI staining based flow cytometric analysis (reference value: 46 %); assay type: functional
[23] = system: NB-4; assay: Cell cycle arrest in human NB4 cells transfected with pLVX-shPML-RARalpha plasmid assessed as accumulation of cells at G0/G1 phase at 2 uM incubated for 12 hrs by DAPI staining based flow cytometric analysis (reference value: 38 %); assay type: functional
[24] = system: NB-4; assay: Cell cycle arrest in human NB4 cells assessed as accumulation of cells at S phase at 1 uM incubated for 24 hrs by DAPI staining based flow cytometric analysis (reference value: 26 %); assay type: functional
[25] = system: ATRA-resistant NB4-LR2; assay: Cell cycle arrest in human ATRA-resistant NB4-LR2 cells transfected with pLVX-shRXRalpha assessed as increase in cyclin B1 expression at 1 uM incubated for 12 hrs by Western blot analysis; assay type: functional, cell-based
[26] = Cell cycle arrest in human ATRA-resistant NB4-LR2 cells assessed as accumulation of cells at G0/G1 phase at 0.5 uM incubated for 24 hrs by DAPI staining based flow cytometric analysis (reference value: 42 %); assay type: functional
[27] = system: NB-4; assay: Cell cycle arrest in human NB4 cells assessed as accumulation of cells at S phase at 2 uM incubated for 24 hrs by DAPI staining based flow cytometric analysis (reference value: 26 %); assay type: functional
[28] = system: NB-4; assay: Cell cycle arrest in human NB4 cells assessed as accumulation of cells at sub-G1 phase at 1 uM incubated for 12 hrs by DAPI staining based flow cytometric analysis (reference value: 2 %); assay type: functional
[29] = system: NB-4; assay: Cell cycle arrest in human NB4 cells assessed as accumulation of cells at G2/M phase at 1 uM incubated for 24 hrs by DAPI staining based flow cytometric analysis (reference value: 23 %); assay type: functional
[30] = Cell cycle arrest in human ATRA-resistant NB4-LR2 cells assessed as accumulation of cells at S phase at 2 uM incubated for 6 hrs by DAPI staining based flow cytometric analysis (reference value: 19 %); assay type: functional
[31] = system: ATRA-resistant NB4-LR2; assay: Cell cycle arrest in human ATRA-resistant NB4-LR2 cells assessed as accumulation of cells at G2/M phase at higher concentration by DAPI staining based flow cytometric analysis; assay type: functional

Q: With `Cc1cc2c(cc1C(=O)/C(Br)=C/c1ccc(C(=O)O)cc1)C(C)(C)CCC2(C)C` as the compound, how does the Activity [1] read?
A: 27%

Q: And the Activity [2]?
A: 48%

Q: And the Activity [3]?
A: 21%

Q: And the Activity [4]?
A: 9%

Q: And the Activity [5]?
A: 20%

Q: What about the Activity [6] of the same compound?
A: inactive

Q: What about the Activity [7] of the same compound?
A: 37%

Q: What about the Activity [8] of the same compound?
A: 3%

Q: What about the Activity [9] of the same compound?
A: 7%

Q: And the Activity [10]?
A: 26%

Q: What about the Activity [11] of the same compound?
A: 54%

Q: And the Activity [12]?
A: 10%

Q: And the Activity [13]?
A: 24%

Q: What about the Activity [14] of the same compound?
A: 22%

Q: And the Activity [15]?
A: 26%

Q: And the Activity [16]?
A: 38%

Q: What about the Activity [17] of the same compound?
A: 22%

Q: And the Activity [18]?
A: 28%

Q: And the Activity [19]?
A: 33%

Q: And the Activity [20]?
A: 19.18%

Q: And the Activity [21]?
A: 20%

Q: And the Activity [22]?
A: 30%

Q: What about the Activity [23] of the same compound?
A: 31%

Q: And the Activity [24]?
A: 9%

Q: And the Activity [25]?
A: inactive

Q: What about the Activity [26] of the same compound?
A: 37%

Q: And the Activity [27]?
A: 19%

Q: And the Activity [28]?
A: 5%

Q: What about the Activity [29] of the same compound?
A: 45%

Q: And the Activity [30]?
A: 7%

Q: For `Cc1cc2c(cc1C(=O)/C(Br)=C\c1ccc(C(=O)O)cc1)C(C)(C)CCC2(C)C`, which Activity [31] is on record?
A: Active
